Measured values taken from ChEMBL document CHEMBL1201862, “PubChem BioAssay data set” (2004).
Values joined by “and” are separate entries in the source; they are usually repeats but may differ in a detail not shown here. Equal values may be shown once.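 These data come from cells grown in 96-well plates and exposed to compound for 48 hours at five concentrations. The concentration for 50% growth inhibition is given as GI50.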 Active and inactive are the calls of the source. Cut-off read from the data, not from the text of the source: active = GI50 up to about 1.1 µM and inactive = higher. Where a SMILES comes first, the peptide text is derived from it. [ ]: non-standard residue; d: D form. The star is where a group is joined. Phe(4-NO2) = N[CH](Cc1ccc([N+](=O)[O-])cc1)C(=O)O; Boc = CC(C)(C)OC(=O)*; OtBu = CC(C)(C)O*

Columns and labels:
Assay in all cases: growth of human tumour cells (NCI), 48 h
[1] = system: OVCAR-5
[2] = system: SNB-19
[3] = system: MOLT-4
[4] = system: NCI/ADR-RES
[5] = system: UO-31
[6] = system: K562
[7] = system: HOP-92
[8] = system: U-251
[9] = system: ACHN
[10] = system: UACC-257
[11] = system: NCI-H460
[12] = system: SF-539
[13] = system: SK-MEL-5
[14] = system: COLO 205
[15] = system: CCRF-CEM
[16] = system: MDA-N
[17] = system: SK-OV-3
[18] = system: LOX IMVI
[19] = system: HOP-62
[20] = system: Hs-578T

Measured: GI50

CCN(CC)CCNc1nc2ccc([N+](=O)[O-])cc2[n+]([O-])n1
inactive: [1] 16 µM | [2] 41.4 µM | [3] 18.9 µM | [4] 24.3 µM | [5] 37.6 µM | [6] 13.2 µM | [7] 32 µM | [8] 21.9 µM | [9] 36.8 µM | [10] 15.8 µM | [11] 10.4 µM | [12] 23.3 µM | [13] 10.5 µM | [14] 2.84 µM | [15] 27 µM | [16] 14.9 µM

CC(=O)NC(CCC(=O)OC(C)(C)C)C(=O)NC(CCC(=O)OC(C)(C)C)C(=O)NC(Cc1ccc([N+](=O)[O-])cc1)C(=O)NC(CCCCNC(=O)OC(C)(C)C)C(=O)NC(CCCCNC(=O)OC(C)(C)C)C(=O)NCC(=O)O (stereo unspecified) (Ac-E(OtBu)E(OtBu)[Phe(4-NO2)]K(Boc)K(Boc)G-OH; configuration not given here)
inactive: [1] > 100 µM | [17] > 100 µM | [2] > 100 µM | [3] > 100 µM | [4] > 100 µM | [5] > 100 µM | [18] > 100 µM | [6] > 100 µM | [7] > 100 µM | [19] > 100 µM | [8] > 100 µM | [9] > 100 µM | [10] > 100 µM | [11] > 100 µM | [12] > 100 µM | [13] 7.35 µM | [14] > 100 µM | [15] > 100 µM | [16] > 100 µM

N=C(N)NCCCC(NC(=O)c1c2ccccc2nc2ccccc12)C(=O)O (stereo unspecified)
inactive: [1] > 100 µM | [17] > 100 µM | [2] > 100 µM | [3] > 100 µM | [4] > 100 µM | [5] > 100 µM | [18] > 100 µM | [6] > 100 µM | [7] > 100 µM | [19] > 100 µM | [8] > 100 µM | [9] > 100 µM | [10] > 100 µM | [11] > 100 µM | [12] > 100 µM | [13] > 100 µM | [14] > 100 µM | [15] > 100 µM | [16] > 100 µM

Cc1c/c(=N/NC(=O)c2ccncc2)n2nc(N)sc2n1
inactive: [1] > 100 µM | [17] > 100 µM | [2] > 100 µM | [3] > 100 µM | [4] > 100 µM | [5] > 100 µM | [18] > 100 µM | [6] > 100 µM | [7] > 100 µM | [19] > 100 µM | [8] > 100 µM | [9] > 100 µM | [10] > 100 µM | [11] > 100 µM | [12] > 100 µM | [13] > 100 µM | [14] > 100 µM | [15] > 100 µM

CC(=O)OC1C/C(C)=C/CCC(C)/C=C/C2(C)CCC(C(C)(C)O)C12 (stereo unspecified)
inactive: [1] > 100 µM | [17] > 100 µM | [2] > 100 µM | [3] 30.4 µM | [5] 37.3 µM | [18] 39.1 µM | [6] 36.7 µM | [7] 18.5 µM | [19] 88.1 µM | [8] 39.4 µM | [9] 36 µM | [10] 26.1 µM | [11] 39.2 µM | [12] > 100 µM | [13] 47.6 µM | [14] 39.8 µM | [15] 28.6 µM

CC(NC(=O)c1ccccc1)C(=O)N(Cc1ccccc1)Cc1ccccc1 (stereo unspecified)
inactive: [1] 33 µM | [17] 33.7 µM | [2] 36.1 µM | [3] 14.1 µM | [5] 27.5 µM | [18] 22.1 µM | [6] 15.3 µM | [7] 23.6 µM | [19] 25.1 µM | [8] 29.8 µM | [9] 31.7 µM | [10] 40.2 µM | [11] 27.4 µM | [12] 55.3 µM | [13] 22.5 µM | [14] 19.2 µM | [15] 21.6 µM

Cc1ccnc(NC(=S)Nc2cccc(Cl)c2)c1
inactive: [1] > 100 µM | [17] > 100 µM | [2] > 100 µM | [20] 74.1 µM | [3] > 100 µM | [4] > 100 µM | [5] > 100 µM | [18] > 100 µM | [6] > 100 µM | [19] 78.9 µM | [8] > 100 µM | [10] > 100 µM | [11] > 100 µM | [12] > 100 µM | [13] > 100 µM | [14] > 100 µM | [15] > 100 µM

COc1c(-c2ccccc2)nc2ccc(Oc3ccccc3)nn12
inactive: [1] > 77.3 µM | [17] > 100 µM | [2] > 84.5 µM | [3] 14.1 µM | [5] > 61.8 µM | [18] > 72.9 µM | [6] 14.6 µM | [7] > 100 µM | [19] > 100 µM | [8] > 80.5 µM | [9] > 58.7 µM | [10] > 54.8 µM | [11] 36.6 µM | [12] > 59.4 µM | [13] 33.2 µM | [14] > 44.7 µM | [15] 8.65 µM

CCCCCCC(C)CCCCCCCCCCC(=O)O (stereo unspecified)
inactive: [1] > 100 µM | [17] > 100 µM | [2] > 100 µM | [3] > 100 µM | [5] > 100 µM | [18] > 100 µM | [6] > 100 µM | [7] > 100 µM | [19] > 100 µM | [8] > 100 µM | [9] > 100 µM | [10] > 100 µM | [11] > 100 µM | [12] > 100 µM | [13] > 100 µM | [14] > 100 µM | [15] > 100 µM

CNC1=Nc2ccccc2C(=S)N2CSC[C@@H]12
inactive: [1] > 100 µM | [17] > 100 µM | [2] > 100 µM | [3] > 100 µM | [4] > 100 µM | [5] > 100 µM | [6] > 100 µM | [7] 50.9 µM | [19] > 100 µM | [8] > 100 µM | [9] > 100 µM | [11] > 100 µM | [12] > 100 µM | [13] > 100 µM | [14] > 100 µM

O=Cc1ccc(OC[C@H]2COC(=O)N2)cc1
inactive: [1] > 100 µM | [17] > 100 µM | [2] > 100 µM | [20] > 100 µM | [3] > 100 µM | [4] > 100 µM | [5] > 100 µM | [18] > 100 µM | [6] > 100 µM | [19] > 100 µM | [8] > 100 µM | [9] > 100 µM | [10] > 100 µM | [11] > 100 µM | [12] > 100 µM | [13] > 100 µM | [14] 72.4 µM | [15] > 100 µM

COC(=O)[C@@H]1[C@H](O)[C@H](C)[C@H](O)[C@@](C)(O)/C=C\C=C(\C)C(=O)Nc2c(C)c(OC(C)=O)c3c(c2O)C(=O)C(C)=C2OCOC(=C23)/C(C)=C/[C@@](C)(O)[C@H](O)[C@@H](C)[C@H]1OC(C)=O
inactive: [1] > 66.8 µM | [17] 82.2 µM | [2] > 100 µM and 91.4 µM | [3] 27.7 µM and 61.7 µM | [5] 25.9 µM | [18] 26.8 µM | [6] 23.4 µM | [7] > 66.8 µM | [19] 40.5 µM | [8] 17.3 µM | [9] 79.4 µM | [10] 27.2 µM and 80.4 µM | [11] 49 µM | [12] > 100 µM and 50.7 µM | [13] 24.5 µM | [14] 72.9 µM and 14.6 µM | [15] 15.8 µM

O=C(Nc1ccccc1)c1cc2cc(CCl)ccc2oc1=O
inactive: [1] > 100 µM | [17] > 100 µM | [2] 80.4 µM | [20] 15 µM | [3] > 100 µM | [4] > 100 µM | [5] > 100 µM | [18] > 100 µM | [6] 62.2 µM | [7] > 100 µM | [19] 81.7 µM | [8] 47 µM | [9] 17 µM | [10] > 100 µM | [11] > 100 µM | [13] > 100 µM | [14] > 100 µM | [15] > 100 µM

CCCCN(CCCC)C1(c2cc3ccccc3s2)CCCCC1.[O-][Cl+3]([O-])([O-])O
inactive: [1] 18.4 µM | [17] 20.4 µM | [2] 18.7 µM | [3] 13.6 µM | [4] 17.7 µM | [5] 18.6 µM | [18] 13.9 µM | [6] 16.7 µM | [7] 12.5 µM | [19] 15.1 µM | [8] 17.3 µM | [9] 16.6 µM | [10] 18.1 µM | [11] 13.5 µM | [12] 19.1 µM | [13] 18.7 µM | [14] 14.9 µM | [15] 12.1 µM | [16] 15.4 µM

O=c1c2cc(-c3ccccc3)cnc2sn1-c1ccc(Br)cc1
inactive: [1] > 100 µM | [17] > 100 µM | [2] > 100 µM | [3] > 100 µM | [4] > 100 µM | [5] > 100 µM | [6] > 100 µM | [7] > 100 µM | [19] > 100 µM | [8] > 100 µM | [9] > 100 µM | [10] > 100 µM | [11] > 100 µM | [12] > 100 µM | [14] > 100 µM | [15] 95.5 µM | [16] > 100 µM
